Consider four sequences from patent US7887822B2, “Peptides for stimulating an immune response against melanoma” (Health Research, Inc., priority 2005, dated 2011).

Where no end group is shown, it is not given here.

Series [1] has as its system HMW-MAA-transfected M14 melanoma cells. In words: Immunogenicity in BALB/c mice: reactivity of sera with HMW-MAA-transfected and mock-transfected M14 melanoma cells in ELISA and FACS. The class given is in vivo. The settings on record: sera day 28; ELISA and FACS analysis. The procedure: FIGS. 4A and 4B are graphical depictions of the immunogenicity of peptide PMK2-23H3 in BALB/c mice. Sera harvested before immunization (circle) and on days 7 (square) and 28 (triangle) after immunization from BALB/c mice immunized with anti-id mAb-derived peptide PMK2-23H3 were tested for their reactivity in ELISA with the immunizing peptide (closed symbols, left panel of FIG. 4A) and with HMW-MAA-derived peptide PHMW.D2.7 (open symbols, right panel of FIG. 4A). Sera harvested before immunization (circles) and on day 28 (triangles) were tested in ELISA (left panel in FIG. 4B) with HMW-MAA-transfected M14#5 cells (closed symbols) and with their mock-transfected counterparts (open symbols, left panel in FIG. 4B). […]
Immunizations were given subcutaneously to 8-week-old female BALB/c mice (obtained from Taconic Farms, Germantown, N.Y.) (5 per group) on day 0, 21, and 42. […] They were tested for reactivity with the immunizing peptide coated on 96-well plates (Temponi, et al. (1989) Hybridoma. 8, 85-95) and with HMW-MAA-bearing melanoma cells in ELISA and fluorescence-activated cell sorting (FACS) analysis using conventional techniques as previously described (Chen, et al. (1991) J. Immunol. 147, 1082-1090).
On the technique in general: ELISA stands for enzyme-linked immunosorbent assay.

For series [2], the system named is mAb 763.74. The series is described as follows: Inhibition by peptides of binding of biotinylated mAb 763.74 to HMW-MAA-bearing Colo38 melanoma cells. The settings on record: for Inhibition of binding of mAb 763.74 to HMW-MAA-bearing melanoma cells: Colo38 cells, escalating peptide concentrations, FIG. 3; for IC50 for inhibition of mAb 763.74 binding: biotinylated mAb 763.74 incubated with peptide at 4° C. overnight, then Colo38 cells 1 h at 4° C., read-out: Dissociation constant (Kd), molar concentration of the peptide required to cause a 50% inhibition of binding of biotinylated mAb 763.74 to Colo38 cells. The procedure:
FIG. 3 is a graphical depiction of dose-dependent inhibition by anti-id mAb MK2-23H3-derived peptide PMK2-23H3 of binding of mAb 763.74 to HMW-MAA-bearing Colo38 melanoma cells. Peptides PHMW.D2.7 (HMW-MAA-derived), PMK2-23H3 (anti-id mAb MK2-23H3-derived), and an irrelevant control peptide Pb2m (β2-microglobulin-derived) at increasing concentrations were incubated with biotinylated mAb 763.74 (0.5 μg/ml) and assayed as described in Example 2. Results of one of three representative experiments are shown.
PMK2-23H3, PMK2-23L1, and PHMW-MAA.D2.7 were synthesized by N.C. Wang, Hospital for Sick Children, Toronto, ON, Canada. A synthetic peptide derived from β2-microglobulin (Pb2m, KNGERIEKVEHS SEQ ID NO:4), used as a negative control, was purchased from University of Georgia Molecular Genetics Instrumentation Facility (Athens, Ga.). mAb 763.74 was purified from ascitic fluid by sequential ammonium sulphate and caprylic acid precipitation (Temponi, et al. (1989) Hybridoma. 8, 85-95). The purity and activity of mAb preparations were assessed by SDS-PAGE and by testing with the corresponding antigen in a binding assay, respectively. Biotinylation was performed using NHS-LC-biotin (Pierce, Rockford, Ill.) according to the manufacturer's instructions.)
Escalating concentrations of peptides were incubated with biotinylated mAb 763.74 ([…]) at 4° C. overnight in U-bottom 96-well plates. The mixture was then incubated with HMW-MAA-bearing melanoma cells Colo38 (10^5/well) for 1 h at 4° C. After three washes with 1% bovine serum albumin in phosphate buffered saline, an optimal amount of horseradish peroxidase-conjugated streptavidin was added. Reactions were then developed and visualized with the TMB substrate system (KPL, Gaithersburg, Md.). Reactions were reported as optical density (O.D.) measured with an ELISA reader. Percent inhibition was calculated by the formula: 100%×(O.D.irrelevant peptide−O.D.test peptide)/O.D.irrelevant peptide. Dissociation constant (Kd) was calculated as the molar concentration of the peptide required to cause a 50% inhibition of binding of biotinylated mAb 763.74 to HMW-MAA-bearing melanoma cells Colo38 (Temponi, et al. (1992) Cancer Res. 52, 2497-2503).

In series [3] the test system is peptides PMK2-23H3, PHMW.D2.7 and anti-id mAb MK2-23. The series is described as follows: Immunogenicity in BALB/c mice: reactivity of sera in peptide binding ELISA. Particulars: peptide conjugated to KLH with Freund adjuvant; for Reactivity of sera from immunized mice with HMW-MAA-derived peptide PHMW.D2.7 / Reactivity of sera from immunized mice with peptide PMK2-23H3: s.c. day 0, 21, 42, sera day 7 and 28, ELISA. The series is classed as in vivo. The procedure: FIGS. 4A and 4B are graphical depictions of the immunogenicity of peptide PMK2-23H3 in BALB/c mice. Sera harvested before immunization (circle) and on days 7 (square) and 28 (triangle) after immunization from BALB/c mice immunized with anti-id mAb-derived peptide PMK2-23H3 were tested for their reactivity in ELISA with the immunizing peptide (closed symbols, left panel of FIG. 4A) and with HMW-MAA-derived peptide PHMW.D2.7 (open symbols, right panel of FIG. 4A). Sera harvested before immunization (circles) and on day 28 (triangles) were tested in ELISA (left panel in FIG. 4B) with HMW-MAA-transfected M14#5 cells (closed symbols) and with their mock-transfected counterparts (open symbols, left panel in FIG. 4B). Sera harvested on day 28 were tested by FACS analysis (right panel in FIG. 4B, open profiles) with HMW-MAA-transfected M14#5 cells (M14#5/HMW) and with their mock-transfected counterparts (M14#5/neo). Preimmune sera (filled profile) were used as controls.
Immunizations were given subcutaneously to 8-week-old female BALB/c mice (obtained from Taconic Farms, Germantown, N.Y.) (5 per group) on day 0, 21, and 42. Sera were harvested before immunization and on day 7 and 28. They were tested for reactivity with the immunizing peptide coated on 96-well plates (Temponi, et al. (1989) Hybridoma. 8, 85-95) and with HMW-MAA-bearing melanoma cells in ELISA and fluorescence-activated cell sorting (FACS) analysis using conventional techniques as previously described (Chen, et al. (1991) J. Immunol. 147, 1082-1090).

Series [4] is described as follows: Solubility of peptide, as noted for the peptide binding assays. The series is classed as physicochemical. The procedure:
Peptide PMK2-23H3, which was based on the H3 loop of anti-id mAb MK2-23 encompassing the HMW-MAA-homologous amino acid sequence (FIG. 1) was analyzed for reactivity with the HMW-MAA-specific idiotypic mAb 763.74. […] The peptide SVEYYGSSLMQ (designated as PMK2-23L1), which was derived from the L1 loop of anti-id mAb MK2-23 encompassing the described HMW-MAA-homologous a.a. sequence, was also synthesized.

“ARSNYVGYHVRWYFD [PMK2-23H3, identical to a portion of the H3 loop of anti-id mAb MK2-23]”: in series [1], the “Reactivity of sera from immunized mice with HMW-MAA-transfected M14 melanoma cells (M14.HMW-MAA)” value was “reacted” and the “Reactivity of sera from immunized mice with mock-transfected M14 cells (M14.neo)” value is given as “did not react”. In addition, in series [2], the “Inhibition of binding of mAb 763.74 to HMW-MAA-bearing melanoma cells” value is given as “inhibits the binding” and the IC50 for inhibition of mAb 763.74 binding is 871 nM. Besides, in series [3], the “Reactivity of sera from immunized mice with HMW-MAA-derived peptide PHMW.D2.7” value was “reacted” and the “Reactivity of sera from immunized mice with peptide PMK2-23H3” value is recorded as “reacted”. In series [3] (s.c., peptide binding assay), the “Reactivity of sera from immunized mice with anti-id mAb MK2-23” value is listed as “reacted”.
For “KNGERIEKVEHS (human; Beta 2-microglobulin peptide) [Pb2m, reference compound]”, the “Inhibition of binding of mAb 763.74 to HMW-MAA-bearing melanoma cells” value in series [2] is listed as “no detectable effect”. Moreover, in series [3], the “Reactivity of sera from immunized mice with HMW-MAA-derived peptide PHMW.D2.7” value was “no detectable reactivity” and the “Reactivity of sera from immunized mice with peptide PMK2-23H3” value is recorded as “no detectable reactivity”.
Regarding SVEYYGSSLMQ [PMK2-23L1, SVEYYGSSLMQ], the Solubility entry in series [4] is on record as “low solubility”.
For the sequence “IRSGDEVHYHVTAGPRW [PHMW-MAA.D2.7, IRSGDEVHYHV TAGPRW, identical to a region of HMW-MAA with partial homology to the H3 loop of MK2-23]”, the IC50 for inhibition of mAb 763.74 binding in series [2] was determined as 900 nM.
